Measured values from US7910746B2, “Haloalkyl carboxamides” (Bayer CropScience AG, priority 2004, dated 2011).

System: Sphaerotheca fuliginea
Assay: Sphaerotheca test (cucumber)/protective
Assay type: in vivo
Conditions: protective, application rate 100 g/ha, evaluation seven days after inoculation
Method: Sphaerotheca Test (Cucumber)/Protective Solvent: • 24.5 parts by weight acetone • 24.5 parts by weight dimethyl acetamide Emulsifier: 1 part by weight alkyl aryl polyglycol ether To produce an appropriate active ingredient preparation, one part by weight of the active substance is mixed with the specified quantities of solvent and emulsifying agent, and the concentrate is diluted with water to the desired concentration. Young plants are sprayed with the active ingredient preparation at the specified application rate to test the effectiveness of protection. After the sprayed coating has dried, the plants are inoculated with an aqueous spore suspension of Sphaerotheca fuliginea. Then the plants are placed in the greenhouse at about 23° C. with relative humidity of about 70%. The evaluation is performed seven days after the inoculation. A degree of effectiveness rating of 0% corresponds to the control, with 100% indicating no infestation observed.

| SMILES | Degree of effectiveness in % |
| --- | --- |
| CCC(Cl)CC(C)c1ccccc1NC(=O)c1c(C)nn(C)c1F (stereo not drawn) [drawing 80] | 95% |
| CCC(Cl)CC(C)c1ccccc1NC(=O)c1cn(C)nc1C(F)F (stereo not drawn) [drawing 81] | 100% |
| Cc1nn(C)c(F)c1C(=O)Nc1ccccc1CCC(C)C(F)(F)F (stereo not drawn) [drawing 82] | 100% |
| CC(CCc1ccccc1NC(=O)c1cn(C)nc1C(F)F)C(F)(F)F (stereo not drawn) [drawing 83] | 98% |

System: Venturia inaequalis
Assay: Venturia test (apple)/protective
Assay type: in vivo
Conditions: protective, application rate 100 g/ha, evaluation ten days after inoculation
Method: Venturia Test (Apple)/Protective Solvent: • 24.5 parts by weight acetone • 24.5 parts by weight dimethyl acetamide Emulsifier: 1 part by weight alkyl aryl polyglycol ether To produce an appropriate active ingredient preparation, one part by weight of the active substance is mixed with the specified quantities of solvent and emulsifying agent, and the concentrate is diluted with water to the desired concentration. Young plants are sprayed with the active ingredient preparation at the specified application rate to test the effectiveness of protection. After the sprayed coating has dried, the plants are inoculated with an aqueous conidia suspension of the apple scab pathogen Venturia inaequalis and are then kept in an incubator at 20° C. and 100% relatively humidity for one day. Then the plants are placed in the greenhouse at about 21° C. with relative humidity of about 90%. The evaluation is performed ten days after the inoculation. A degree of effectiveness rating of 0% corresponds to the control, with 100% indicating no infestation observed.

| SMILES | Degree of effectiveness in % |
| --- | --- |
| CC(CCc1cc(Cl)ccc1NC(=O)c1cn(C)nc1C(F)F)C(F)(F)F (stereo not drawn) | 93% |
| CCC(Cl)CC(C)c1ccccc1NC(=O)c1c(C)nn(C)c1F (stereo not drawn) [drawing 85] | 100% |
| CCC(Cl)CC(C)c1ccccc1NC(=O)c1cn(C)nc1C(F)F (stereo not drawn) [drawing 86] | 100% |
| CC(CCc1ccccc1NC(=O)c1ccccc1I)C(F)(F)F (stereo not drawn) [drawing 87] | 94% |
| Cc1nn(C)c(F)c1C(=O)Nc1ccccc1CCC(C)C(F)(F)F (stereo not drawn) [drawing 88] | 94% |
| CC(CCc1ccccc1NC(=O)c1cn(C)nc1C(F)F)C(F)(F)F (stereo not drawn) [drawing 89] | 97% |

System: Alternaria solani
Assay: Alternaria test (tomato)/protective
Assay type: in vivo
Conditions: protective, application rate 750 g/ha, evaluation seven days after inoculation
Method: Alternaria Test (Tomato)/Protective Solvent: 49 parts by weight N,N-dimethyl formamide Emulsifier: 1 part by weight alkyl aryl polyglycol ether To produce an appropriate active ingredient preparation, one part by weight of the active substance is mixed with the specified quantities of solvent and emulsifying agent, and the concentrate is diluted with water to the desired concentration. Young tomato plants are sprayed with the active ingredient preparation at the specified application rate to test the effectiveness of protection. One day after treatment, the plants are inoculated with a spore suspension of Alternaria solani and are kept for 24 hours at 100% relatively humidity and 20° C. Subsequently, the plants are kept at 96% relatively humidity and a temperature of 20° C. The evaluation is performed seven days after the inoculation. A degree of effectiveness rating of 0% corresponds to the control, with 100% indicating no infestation observed.

| SMILES | Degree of effectiveness in % |
| --- | --- |
| Cc1nn(C)c(F)c1C(=O)Nc1ccc(Cl)cc1CCC(C)C(F)(F)F (stereo not drawn) | 90% |
| CCC(Cl)CC(C)c1ccccc1NC(=O)c1c(C)nn(C)c1F (stereo not drawn) [drawing 97] | 100% |
| CCC(Cl)CC(C)c1ccccc1NC(=O)c1cn(C)nc1C(F)F (stereo not drawn) [drawing 98] | 95% |

System: not listed separately
Assay: log P by HPLC on reverse phase column (C18), acid range
Assay type: physicochemical
Conditions: pH 2.3, HPLC C18, 43° C.
Method: The specified log P values are determined by HPLC on a reverse phase column (C18) in accordance with EEC Directive 79/831 Annex V.A8. Temperature: 43° C. Eluents for the measurement in the acid range (pH 2.3): 0.1% aqueous phosphoric acid, acetonitrile; linearer gradient of 10% acetonitrile to 90% acetonitrile. Calibration is performed with unbranched alkyl-2-ones (with 3 to 16 carbon atoms) with known log P values (determination of the log P values based on retention times by linear interpolation between two sequential alkyl ketones).

| SMILES | chromatographic logP |
| --- | --- |
| CC(CCc1cc(Cl)ccc1NC(=O)c1ccccc1C(F)(F)F)C(F)(F)F (stereo not drawn) [Example 1, N-[4-chloro-2-(4,4,4-trifluoro-3-methylbutyl)-phenyl]-2-trifluoromethylbenzamide] | 4.08 |
| CC(CCc1ccccc1NC(=O)c1cn(C)nc1C(F)F)C(F)(F)F (stereo not drawn) [Example 2, 3-difluoromethyl-1-methyl-1H-pyrazole-4-carboxyic acid, [2-(4,4,4-trifluoro-3-methylbutyl)-phenyl]-amide] | 2.93 |

System: Botrytis cinerea
Assay: Botrytis test (bean)/protective
Assay type: in vivo
Conditions: protective, application rate 500 g/ha, evaluation two days after inoculation
Method: Botrytis Test (Bean)/Protective Solvent: • 24.5 parts by weight acetone • 24.5 parts by weight dimethyl acetamide Emulsifier: 1 part by weight alkyl aryl polyglycol ether To produce an appropriate active ingredient preparation, one part by weight of the active substance is mixed with the specified quantities of solvent and emulsifying agent, and the concentrate is diluted with water to the desired concentration. Young plants are sprayed with the active ingredient preparation at the specified application rate to test the effectiveness of protection. After the sprayed coating has dried, two small pieces of agar with cultured Botrytis cinerea are placed on each leaf. The inoculated plants are placed in a darkened chamber at about 20° C. and 100% relatively humidity. Two days after the inoculation, the size of the infestation spots on the leaves is evaluated. A degree of effectiveness rating of 0% corresponds to the control, with 100% indicating no infestation observed.

| SMILES | Degree of effectiveness in % |
| --- | --- |
| CCC(Cl)CC(C)c1ccccc1NC(=O)c1c(C)nn(C)c1F (stereo not drawn) [drawing 90] | 82% |
| CCC(Cl)CC(C)c1ccccc1NC(=O)c1cn(C)nc1C(F)F (stereo not drawn) [drawing 91] | 100% |
| CC(CCc1ccccc1NC(=O)c1cn(C)nc1C(F)F)C(F)(F)F (stereo not drawn) [drawing 92] | 99% |

System: Puccinia recondita
Assay: Puccinia test (wheat)/protective
Assay type: in vivo
Conditions: protective, application rate 500 g/ha, evaluation ten days after inoculation
Method: Puccinia Test (Wheat)/Protective Solvent: 50 parts by weight N,N-dimethyl acetamide Emulsifier: 1 part by weight alkyl aryl polyglycol ether To produce an appropriate active ingredient preparation, one part by weight of the active substance is mixed with the specified quantities of solvent and emulsifying agent, and the concentrate is diluted with water to the desired concentration. Young plants are sprayed with the active ingredient preparation at the specified application rate to test the effectiveness of protection. After the sprayed coating has dried, the plants are sprayed with a conidia suspension of Puccinia recondita. The plants are kept in an incubator at 20° C. and 100% relatively humidity for 48 hours. Then the plants are placed in a greenhouse at a temperature of about 20° C. and a relatively humidity of 80%, in order to promote the development of rust spots. The evaluation is performed ten days after the inoculation. A degree of effectiveness rating of 0% corresponds to the control, with 100% indicating no infestation observed.

| SMILES | Degree of effectiveness in % |
| --- | --- |
| CCC(Cl)CC(C)c1ccccc1NC(=O)c1cn(C)nc1C(F)F (stereo not drawn) [drawing 93] | 100% |
| CC(CCc1ccccc1NC(=O)c1ccccc1I)C(F)(F)F (stereo not drawn) [drawing 94] | 100% |
| CC(CCc1ccccc1NC(=O)c1cn(C)nc1C(F)F)C(F)(F)F (stereo not drawn) [drawing 95] | 100% |
